Experimental data: the NIST ThermoML archive (doi:10.1016/j.fluid.2007.09.028)

Test: xn = mol fraction of the nth substance listed
Conditions: 101 kPa, Liquid

Clc1ccccc1 [chlorobenzene] + CCCO
mass density [kg/m3]
Conditions | 288.15 K | 293.15 K | 298.15 K | 303.15 K | 308.15 K | 313.15 K
x2 = 0 | 1111.81 | 1106.43 | 1101.04 | 1095.64 | 1090.23 | 1084.82
x2 = 0.0254 | 1105.92 | 1100.51 | 1095.1 | 1089.69 | 1084.26 | 1078.83
x2 = 0.0513 | 1100.01 | 1094.6 | 1089.18 | 1083.75 | 1078.3 | 1072.86
x2 = 0.0726 | 1095.18 | 1089.77 | 1084.35 | 1078.91 | 1073.46 | 1068.03
x2 = 0.0738 | 1094.9 | 1089.49 | 1084.07 | 1078.63 | 1073.18 | 1067.73
x2 = 0.1016 | 1088.48 | 1083.08 | 1077.66 | 1072.22 | 1066.77 | 1061.3
x2 = 0.1058 | 1087.51 | 1082.11 | 1076.69 | 1071.26 | 1065.81 | 1060.35
x2 = 0.1365 | 1080.3 | 1074.91 | 1069.5 | 1064.08 | 1058.63 | 1053.17
x2 = 0.2019 | 1064.7 | 1059.35 | 1053.96 | 1048.56 | 1043.17 | 1037.75
x2 = 0.2472 | 1053.55 | 1048.23 | 1042.89 | 1037.53 | 1032.14 | 1026.73
x2 = 0.2984 | 1040.5 | 1035.23 | 1029.94 | 1024.62 | 1019.26 | 1013.88
x2 = 0.3443 | 1028.6 | 1023.38 | 1018.13 | 1012.85 | 1007.53 | 1002.2
x2 = 0.4027 | 1012.95 | 1007.78 | 1002.6 | 997.378 | 992.12 | 986.836
x2 = 0.4952 | 986.837 | 981.797 | 976.724 | 971.618 | 966.472 | 961.296
x2 = 0.5492 | 970.777 | 965.817 | 960.824 | 955.797 | 950.728 | 945.63
x2 = 0.5975 | 955.977 | 951.086 | 946.167 | 941.211 | 936.213 | 931.183
x2 = 0.6447 | 940.98 | 936.176 | 931.338 | 926.463 | 921.545 | 916.599
x2 = 0.699 | 923.003 | 918.296 | 913.559 | 908.798 | 903.973 | 899.127
x2 = 0.7494 | 905.686 | 901.079 | 896.443 | 891.773 | 887.057 | 882.312
x2 = 0.8008 | 887.239 | 882.746 | 878.223 | 873.664 | 869.063 | 864.438
x2 = 0.8473 | 869.896 | 865.508 | 861.093 | 856.643 | 852.152 | 847.622
x2 = 0.8955 | 851.18 | 846.915 | 842.621 | 838.296 | 833.934 | 829.53
x2 = 0.9192 | 841.722 | 837.516 | 833.28 | 829.014 | 824.709 | 820.375
x2 = 0.9497 | 829.134 | 825.009 | 820.857 | 816.677 | 812.457 | 808.213
